Reference: patent US20260200925A1, “SMALL MOLECULE INHIBITORS OF KRAS MUTATED PROTEINS” (MERCK SHARP & DOHME LLC, priority 2021, published 2026)
pIC50: −log10 of the molar value.

How the values were obtained:
[1] = system: AsPC-1 cells containing homozygous KRAS-G12D activating mutation (p-ERK); details: Homo sapiens, ASPC1, 2 h, read-out: KRAS G12D ASPC-1 IC50 (nM)
Method: Procedure for Cellular Phospho-ERK Assay, G12D
AsPC-1 cells (ATCC® CRL-1682™), containing homozygous KRAS-G12D activating mutation, were cultured in T150 flask in growth medium (RPMI medium 1640-GlutaMAX™—I (ThermoFisher Scientific 61870) containing 10% fetal bovine serum (ThermoFisher Scientific 10091148)). The cells were harvested in growth medium after TrypLE (ThermoFisher scientific 12604021) digestion and were seeded in a 384-well collagen coated cell culture plate (Corning 356702) at a density of 15,000 cells/well, and incubated at 37° C., 5% CO2 overnight. […] RPMI medium 1640-GlutaMAX™—I was added to the intermediate plate and the contents of the intermediate plate were then transferred to the 384-well collagen coated cell culture plate, which was incubated at 37° C., 5% CO2 for 2 hours. After removal of medium from the collagen coated cell culture plate, cells were lysed in lysis buffer from Alpha SureFire® Ultra™ Multiplex p-ERK and total ERK assay kit (PerkinElmer MPSU-PTERK) containing Halt™ Protease and Phosphatase inhibitor cocktail (ThermoFisher Scientific 78446) at room temperature with constant shaking at 300 rpm for 30 minutes. The cell lysates were then transferred to an OptiPlate-384 plate (PerkinElmer 6005620), and the phosphorylation of ERK (p-ERK) and total ERK levels were detected by Alpha SureFire® Ultra™ Multiplex p-ERK kit and total ERK assay kit (PerkinElmer MPSU-PTERK) following the manufacturer's protocol. Assay plates were read on a EnVision Multimode Plate Reader (PerkinElmer), and the ratio of p-ERK vs. total ERK in each well was used as the final readout. Dose response curves were analyzed using a 4-parameter logistic model to calculate IC50 values using Spotfire software.

[2] = system: NCI-H358 cells containing homozygous KRAS-G12C activating mutation (p-ERK); details: Homo sapiens, NCI-H358, 2 h, read-out: G12C H358 IC50 (nM)
Method: Procedure for Cellular Phospho-ERK Assay, G12C
NCI-H358 cells (ATCC® CRL-5807™), containing homozygous KRAS-G12C activating mutation, were cultured in T150 flask in growth medium (RPMI medium 1640-GlutaMAX™—I (ThermoFisher Scientific 61870) containing 10% fetal bovine serum (ThermoFisher Scientific 10091148)). The cells were harvested in growth medium after TrypLE (ThermoFisher scientific 12604021) digestion and were seeded in a 384-well collagen coated cell culture plate (Corning 356702) at a density of 15,000 cells/well, and incubated at 37° C., 5% CO2 overnight. […] RPMI medium 1640-GlutaMAX™—I was added to the intermediate plate and the contents of the intermediate plate were then transferred to the 384-well collagen coated cell culture plate, which was incubated at 37° C., 5% CO2 for 2 hours. After removal of medium from the collagen coated cell culture plate, cells were lysed in lysis buffer from Alpha SureFire® Ultra™ Multiplex p-ERK and total ERK assay kit (PerkinElmer MPSU-PTERK) containing Halt™ Protease and Phosphatase inhibitor cocktail (ThermoFisher Scientific 78446) at room temperature with constant shaking at 300 rpm for 30 minutes. The cell lysates were then transferred to an OptiPlate-384 plate (PerkinElmer 6005620), and the phosphorylation of ERK (p-ERK) and total ERK levels were detected by Alpha SureFire® Ultra™ Multiplex p-ERK kit and total ERK assay kit (PerkinElmer MPSU-PTERK) following the manufacturer's protocol. Assay plates were read on an EnVision Multimode Plate Reader (PerkinElmer), and the ratio of p-ERK vs. total ERK in each well was used as the final readout. Dose response curves were analyzed using a 4-parameter logistic model to calculate IC50 values using Spotfire software.
HRAS (SEQ ID NO: 4) = HRAS (SEQ ID NO: 4) (Homo sapiens, UniProt P01112); test: SOS-catalyzed guanine nucleotide exchange (GNE) assay, HRAS
Method: (§1) Specifically, the SOS-catalyzed nucleotide exchange assay utilizes a preformed time-resolved fluorescence resonance energy transfer (TR-FRET) complex containing a specific biotinylated RAS protein (KRAS-G12C/V/D, HRAS, NRAS; described above) with BODIPY-GDP, and Terbium-streptavidin. Test compounds are preincubated with this complex for 60 minutes.
(§2) To assemble the preformed TR-FRET complexes, each biotinylated RAS protein is diluted to 2 μM in an EDTA Buffer (20 mM HEPES, 50 mM sodium chloride, 10 mM EDTA, and 0.01% Tween) and incubated at room temperature for one hour. This mixture is then further diluted to 90 nM in an Assay Buffer (20 mM HEPES, 150 mM sodium chloride, 10 mM magnesium chloride, and 0.005% Tween) containing 15 nM of Terbium-Streptavidin (Invitrogen, catalog #PV3577) and 900 nM of BODIPY-GDP (Invitrogen, catalog #G22360) and incubated at room temperature for six hours. It should be noted that this preformed TR-FRET complex for each of the RAS proteins was made ahead of time, aliquoted and stored at −80° C. until the day of the experiment.
(§3) Once titrations are made, 10 nL of the diluted compounds is acoustically dispensed into a 384-well assay plate (Corning, catalog #3820) using an Echo 550 (Labcyte). Each well of the assay plate subsequently receives 3 μL of a specific 3× RAS preformed TR-FRET complex and 3 μL of Assay Buffer and is incubated at room temperature for 60 minutes (preincubation time). […] The final reaction in each well of 9 μL consists of 3 mM GTP, and the specific RAS and SOS proteins in the following concentrations: KRAS-G12C/SOS=3 nM/40 nM, KRAS-G12D/SOS=1 nM/40 nM, KRAS-G12V/SOS=1.25 nM/160 nM, HRAS/SOS=1.25 nM/40 nM, and NRAS/SOS=1.25 nM/40 nM.
(§4) The TR-FRET signal is measured on an Envision (PerkinElmer) plate reader: Excitation filter=340 nm; emission 1=495 nm; emission 2=520 nm; dichroic mirror=D400/D505; delay time=100 ms. The signal of each well is determined as the ratio of the emission at 520 nm to that at 495 nm. […] The apparent effect as a function of compound concentration is fit to a four-parameter logistic equation to calculate IC50 values using Spotfire software.
NRAS (SEQ ID NO: 5) = NRAS (SEQ ID NO: 5) (Homo sapiens, UniProt P01111); test: SOS-catalyzed guanine nucleotide exchange (GNE) assay, NRAS
Method: as §1, §2, §3, §4

G13D = G13D (Homo sapiens, UniProt P01116, G13D); test: Guanine nucleotide exchange (GNE) assay, G13D; assay type: biochemical
Method: as §4

[3] = target: Recombinant KRAS-G12D (SEQ ID NO: 2) (Homo sapiens, UniProt P01116, G12D); test: SOS-catalyzed guanine nucleotide exchange (GNE) assay, KRAS-G12D
Method: as §1, §2, §3, §4

[4] = target: Recombinant KRAS-G12V (SEQ ID NO: 3) (Homo sapiens, UniProt P01116, G12V); test: SOS-catalyzed guanine nucleotide exchange (GNE) assay, KRAS-G12V
Sequence of Recombinant KRAS-G12V (SEQ ID NO: 3) (P01116 with tags, fused parts or gaps isoform P01116-2 G12V): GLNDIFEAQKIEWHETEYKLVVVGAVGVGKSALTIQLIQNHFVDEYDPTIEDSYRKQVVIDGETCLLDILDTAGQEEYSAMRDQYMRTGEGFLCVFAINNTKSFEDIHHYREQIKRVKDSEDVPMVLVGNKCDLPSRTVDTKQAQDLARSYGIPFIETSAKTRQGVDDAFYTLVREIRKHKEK
Method: as §1, §2, §3, §4

Sequence of Recombinant KRAS-G12D (SEQ ID NO: 2) (P01116 with tags, fused parts or gaps isoform P01116-2 G12D): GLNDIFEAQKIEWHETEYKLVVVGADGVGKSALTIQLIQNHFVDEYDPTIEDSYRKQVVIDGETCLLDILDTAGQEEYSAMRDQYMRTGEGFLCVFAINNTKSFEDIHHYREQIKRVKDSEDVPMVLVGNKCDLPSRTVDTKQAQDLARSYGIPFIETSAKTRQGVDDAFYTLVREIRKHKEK
Sequence of NRAS (SEQ ID NO: 5) (P01111 with tags, fused parts or gaps): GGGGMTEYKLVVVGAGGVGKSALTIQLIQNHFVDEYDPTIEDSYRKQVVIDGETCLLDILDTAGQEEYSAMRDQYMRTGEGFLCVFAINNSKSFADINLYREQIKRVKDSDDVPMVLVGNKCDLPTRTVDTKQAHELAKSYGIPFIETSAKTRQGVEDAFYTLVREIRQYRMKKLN
Sequence of G13D (P01116 1-188 isoform P01116-2 G13D): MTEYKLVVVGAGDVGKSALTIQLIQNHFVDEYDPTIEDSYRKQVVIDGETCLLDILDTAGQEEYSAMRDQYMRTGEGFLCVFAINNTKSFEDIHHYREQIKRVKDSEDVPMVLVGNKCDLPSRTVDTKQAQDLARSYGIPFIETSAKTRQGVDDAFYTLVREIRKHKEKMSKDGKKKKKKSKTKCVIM
Sequence of HRAS (SEQ ID NO: 4) (P01112 with tags, fused parts or gaps): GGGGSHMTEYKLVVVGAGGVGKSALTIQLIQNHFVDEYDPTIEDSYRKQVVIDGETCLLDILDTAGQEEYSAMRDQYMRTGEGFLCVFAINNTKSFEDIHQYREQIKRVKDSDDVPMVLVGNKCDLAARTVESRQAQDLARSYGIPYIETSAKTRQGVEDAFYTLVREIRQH

Structure (SMILES) | IC50 [1] [nM] | IC50 [2] [nM] | pIC50 (HRAS (SEQ ID NO: 4)) | pIC50 (NRAS (SEQ ID NO: 5)) | pIC50 (G13D) | pIC50 [3] | pIC50 [4]
C#Cc1cccc2cc(O)cc(-c3c(Cl)cc4c(N5CCC[C@@](C)(O)C5)nc(OC[C@@]56CCCN5C[C@H](F)C6)nc4c3F)c12 [Ex-1, (3R)-1-(6-chloro-7-(8-ethynyl-3-hydroxvnaphthalen-1-yl)-8-fluoro-2-(((2R,7aS)-2-fluorotetrahydro-1H-pyrrolizin-7a(5H)-yl)methoxy)quinazolin-4-yl)-3-methylpiperidin-3-ol] | 70 | 41 | < 5.00 | < 5.00 |  |  | 
C#Cc1c(F)ccc2cccc(-c3c(F)cc4c(N5CCC[C@@](C)(O)C5)nc(OC[C@@]56CCCN5[C@H](COC(=O)N(C)C)CC6)nc4c3F)c12 [Ex-45, ((3S,7aS)-7a-(((7-(8-ethynyl-7-fluoronaphthalen-1-yl)-6,8-difluoro-4-((R)-3-hydroxy-3-methylpiperidin-1-yl)quinazolin-2-yl)oxy)methyl)hexahydro-1H-pyrrolizin-3-yl)methyl dimethylcarbamate] | 379 | 331 |  |  | 7.85 | 7.64 | 7.92
C#Cc1cccc2cc(O)cc(-c3ncc4c(N5CCC[C@@](C)(O)C5)nc(OC[C@@]56CCCN5C[C@H](F)C6)nc4c3F)c12 [Ex-23, (R)-1-(7-(8-ethynyl-3-hydroxynaphthalen-1-yl)-8-fluoro-2-(((2R,7aS)-2-fluorotetrahydro-1H-pyrrolizin-7a(5H)-yl)methoxy)pyrido[4,3-d]pyrimidin-4-yl)-3-methylpiperidin-3-ol] | 65 | 14 |  |  | 8.70 | 9.00 | 9.00
CC1(O)CCCN(c2nc(OC[C@@]34CCCN3C[C@H](F)C4)nc3c(F)c(-c4cc(O)cc5cccc(Cl)c45)c(F)cc23)C1 (stereo partly drawn) [Ex-29, 1-(7-(8-chloro-3-hydroxynaphthalen-1-yl)-6,8-difluoro-2-(((2R,7aS)-2-fluorotetrahydro-1H-pyrrolizin-7a(5H)-yl)methoxy)quinazolin-4-yl)-3-methylpiperidin-3-ol] | 900 | > 30000 |  |  | 7.89 | 7.82 | 7.77
CN(C)CC1(COc2nc(N3CCCC(C)(O)C3)c3cc(F)c(-c4cc(O)ccc4OC(F)(F)F)c(F)c3n2)CC1 (stereo not drawn) [Ex-9, 1-(2-((1-((dimethylamino)methyl)cyclopropyl)methoxy)-6,8-difluoro-7-(5-hydroxy-2-(trifluoromethoxy)phenyl)quinazolin-4-yl)-3-methylpiperidin-3-ol] | 1880 | 4210 |  |  | 6.66 | 6.50 | 6.42
CN(C)CC1(COc2nc(N3CCCC(O)CC3)c3cc(Cl)c(-c4ccc(F)c5sc(N)nc45)c(F)c3n2)CC1 (stereo not drawn) [Ex-17, 1-(7-(2-amino-7-fluorobenzo[d]thiazol-4-yl)-6-chloro-2-((1-((dimethylamino)methyl)cyclopropyl)methoxy)-8-fluoroquinazolin-4-yl)azepan-4-ol] |  |  | < 5.00 | < 5.00 | 6.47 | 6.55 | 6.63
CC1(O)CN(c2nc(OC[C@@]34CCCN3C[C@H](F)C4)nc3c(F)c(-c4cc(O)cc5cccc(Cl)c45)c(F)cc23)CCC1F (stereo partly drawn) [Ex-32, 1-(7-(8-chloro-3-hydroxynaphthalen-1-yl)-6,8-difluoro-2-(((2R,7aS)-2-fluorotetrahydro-1H-pyrrolizin-7a(5H)-yl)methoxy)quinazolin-4-yl)-4-fluoro-3-methylpiperidin-3-ol] | 261 | 118 |  |  | 7.80 | 7.23 | 7.40
Cc1cc2[nH]ncc2c(-c2c(F)cc3c(N4CCOC[C@@](C)(O)C4)nc(OC[C@@]45CCCN4C[C@H](F)C5)nc3c2F)c1C(F)(F)F [Ex-41, (6S)-4-(6,8-difluoro-2-(((2R,7aS)-2-fluorotetrahydro-1H-pyrrolizin-7a(5H)-yl)methoxy)-7-(6-methyl-5-(trifluoromethyl)-1H-indazol-4-yl)quinazolin-4-yl)-6-methyl-1,4-oxazepan-6-ol] | 285 | 203 | < 4.95 | < 4.95 | 7.32 | 7.48 | 7.22
CC1(O)CN(c2nc(OC[C@@]34CCCN3C[C@H](F)C4)nc3c(F)c(-c4cc(O)cc5cccc(Cl)c45)c(F)cc23)CCC1(F)F (stereo partly drawn) [Ex-31, 1-(7-(8-chloro-3-hydroxynaphthalen-1-yl)-6,8-difluoro-2-(((2R,7aS)-2-fluorotetrahydro-1H-pyrrolizin-7a(5H)-yl)methoxy)quinazolin-4-yl)-4,4-difluoro-3-methylpiperidin-3-ol] | 1730 | 468 |  |  | 6.72 | 6.01 | 6.45
Cc1cc2[nH]ncc2c(-c2c(F)cc3c(N4CCC[C@H](O)CC4)nc(OC[C@@]45CCCN4C[C@H](F)C5)nc3c2F)c1C(F)(F)F [Ex-40, (4S)-1-(6,8-difluoro-2-(((2R,7aS)-2-fluorotetrahydro-1H-pyrrolizin-7a(5H)-yl)methoxy)-7-(6-methyl-5-(trifluoromethyl)-1H-indazol-4-yl)quinazolin-4-yl)azepan-4-ol] | 1330 | 981 |  |  | 6.03 | 6.76 | 6.33
Cc1cc(N)nc(-c2c(Cl)cc3c(N4CCCC(C)(O)C4)nc(OC[C@@]45CCCN4C[C@H](F)C5)nc3c2F)c1C(F)(F)F (single isomer, unassigned) [Ex-26] | 3920 | 7730 |  |  | 6.15 | 5.70 | 5.81
C#Cc1cccc2cc(O)cc(-c3c(F)cc4c(N5CCCC(O)(C(F)F)C5)nc(OC[C@@]56CCCN5C[C@H](F)C6)nc4c3F)c12 (stereo partly drawn) [Ex-43, 3-(difluoromethyl)-1-(7-(8-ethynyl-3-hydroxynaphthalen-1-yl)-6,8-difluoro-2-(((2R,7aS)-2-fluorotetrahydro-1H-pyrrolizin-7a(5H)-yl)methoxy)quinazolin-4-yl)piperidin-3-ol] | 215 | 58 |  |  | 8.10 | 7.89 | 8.00
CN(C)CC1(COc2nc(N3CCCC(C)(O)C3)c3cc(F)c(-c4cc(O)cc5ccccc45)c(F)c3n2)CC1 (stereo not drawn) [Ex-8, 1-(2-((1-((dimethylamino)methyl)cyclopropyl)methoxy)-6,8-difluoro-7-(3-hydroxynaphthalen-1-yl)quinazolin-4-yl)-3-methylpiperidin-3-ol] |  |  | < 5.00 | < 5.00 |  |  | 
C#Cc1cccc2cc(O)cc(-c3ncc4c(N5CCC[C@@](C)(O)C5)nc(OC[C@]5(CN(C)C)CC5(F)F)nc4c3F)c12 [Ex-24, (R)-1-(2-(((R)-1-((dimethylamino)meth-yl)-2,2-difluorocyclopropyl)methoxy)-7-(8-ethynyl-3-hydroxynaphthalen-1-yl)-8-fluoropyrido[4,3-d]pyrimidin-4-yl)-3-methylpiperidin-3-ol] | 20 | 2 |  |  | 9.00 | 9.00 | 9.00
C#Cc1cccc2cc(O)cc(-c3c(F)cc4c(N5CCCC(O)(CO)C5)nc(OC[C@@]56CCCN5C[C@H](F)C6)nc4c3F)c12 (stereo partly drawn) [Ex-48, 1-(7-(8-ethynyl-3-hy-droxynaphthalen-1-yl)-6,8-difluoro-2-(((2R,7aS)-2-fluorotetrahydro-1H-pyrrolizin-7a(5H)-yl)methoxy)quinazolin-4-yl)-3-(hydroxymethyl)piperidin-3-ol] | 376 | 180 |  |  | 8.15 | 7.89 | 8.30
Oc1cc(-c2c(F)cc3c(N4CCCCC(O)C4)nc(OC[C@@]45CCCN4C[C@H](F)C5)nc3c2F)c2c(Cl)cccc2c1 (stereo partly drawn) [Ex-34, 1-(7-(8-chloro-3-hydroxynaphthalen-1-yl)-6,8-difluoro-2-(((2R,7aS)-2-fluorotetrahydro-1H-pyrrolizin-7a(5H)-yl)methoxy)quinazolin-4-yl)azepan-3-ol] | 6300 | 3620 |  |  | 6.36 | 6.55 | 6.23
Oc1cc(-c2c(F)cc3c(N4CCCC(O)(C(F)(F)F)C4)nc(OC[C@@]45CCCN4C[C@H](F)C5)nc3c2F)c2c(Cl)cccc2c1 (single isomer, unassigned) [Ex-38] | 6860 | 2170 |  |  | 6.11 | 6.07 | 6.22
C#Cc1c(F)ccc2cccc(-c3c(F)cc4c(N5CCC[C@@](C)(O)C5)nc(OC[C@@]56CCCN5C[C@H](F)C6)nc4c3F)c12 [Ex-47, (3R)-1-(7-(8-ethynyl-7-fluoronaphthalen-1-yl)-6,8-difluoro-2-(((2R,7aS)-2-fluorotetrahydro-1H-pyrrolizin-7a(5H)-yl)methoxy)quinazolin-4-yl)-3-methylpiperidin-3-ol] | 2070 | 979 |  |  | 6.76 | 6.62 | 6.41
CC1(O)CCCCN(c2nc(OC[C@@]34CCCN3C[C@H](F)C4)nc3c(F)c(-c4cc(O)cc5cccc(Cl)c45)c(F)cc23)C1 (single isomer, unassigned) [Ex-36] | 1860 | 3580 |  |  | 6.85 | 6.40 | 6.52
